US20120178085A1, “METHOD FOR EVALUATION OF CULTURED CELLS, AND METHOD FOR SCREENING OF BIOMARKER” (priority 2009, published 2012)

Test system: Human liver cancer-derived cell line (HuH-7)
Experiment: miRNA released into serum-free culture medium from HuH-7 cells treated with carbon tetrachloride (real-time PCR)
Format: cell-based
Details: carbon tetrachloride 0-1000 μM, 7-day culture in serum-free maintenance medium, FIG. 2
Method: Human liver cancer-derived cell line (HuH-7, purchased from ATCC) was seeded in a culture vessel of 12-well culture plate at a cell density of 20000 cells/cm^2, and cells were cultured for 7 days in a serum-free maintenance medium containing carbon tetrachloride, which was known to injure liver tissue and liver cells, at a relatively low concentration of 0-1000 μM used in World J Gastroenterol. 2008 Jun. 21; 14(23):3693-709. The maintenance medium used herein was the same as one used in Example 1.
Each culture medium was collected after 7-day culturing, and cells were removed by filtration through a 0.22 μm filter to obtain samples.
cDNA samples of Poly(A)miRNA samples were obtained in the same manner as in Example 1.
Real-time PCR was carried out using Platinum SYBR Green (produced by Invitrogen) to measure hsa-miR-21, hsa-miR-122, hsa-miR-451 and hsa-miR-16 contained in the cDNA samples. The primers used were as follows.

ClC(Cl)(Cl)Cl [carbon tetrachloride]
amount of miRNA released from cells into culture medium (hsa-miR-21, hsa-miR-122, hsa-miR-451, hsa-miR-16): increased
